Measured values taken from PMC5809175 (Investigational new drugs, 2016).

What was measured:
[1] = Phase I 3 + 3 dose escalation and expansion: DLT, MTD and RP2D; assay type: in vivo, human; settings: extensive CYP2C19 metabolizers
clinical = settings: human, in vivo
CYP3A4 = settings: cited from earlier work
hepatocellular carcinoma = settings: patients with hepatocellular carcinoma, p=0.04, cited from earlier work
CYP2C19 and CYP3A4/5 = settings: cited from earlier work
[2] = cited from earlier work

SMILES	MTD and RP2D, temsirolimus ([1]; intravenous, in combination with tivantinib) [mg weekly]	AUC0–∞, ratio (%) geometric means (clinical) [%]	Cmax, ratio (%) geometric means (clinical) [%]	AUC(0-inf) (clinical; AUC0–∞, geometric mean) [ng·h/mL]	Cmax (clinical; Cmax, geometric mean) [ng/mL]	metabolizing enzymes (CYP3A4)	MTD and RP2D, tivantinib ([1]; oral, in combination with temsirolimus) [mg twice daily]	Dose adjusted AUC0–12, geometric mean (clinical) [ng·h/mL/mg]	Dose adjusted Cmax, geometric mean (clinical) [ng/mL/mg]	time to progression, HR vs placebo (hepatocellular carcinoma; 90% CI 0.43–0.94)	time to progression (hepatocellular carcinoma; placebo 1.4 months) [months]	metabolizing enzymes (CYP2C19 and CYP3A4/5)	RP2D in CYP2C19 poor metabolizers [2] [mg twice daily]
CO[C@H]1C[C@@H]2CC[C@@H](C)[C@@](O)(O2)C(=O)C(=O)N2CCCC[C@H]2C(=O)O[C@H]([C@H](C)C[C@@H]2CC[C@@H](OC(=O)C(C)(CO)CO)[C@H](OC)C2)CC(=O)[C@H](C)/C=C(\C)[C@@H](O)[C@@H](OC)C(=O)[C@H](C)C[C@H](C)/C=C/C=C/C=C/1C [temsirolimus]	20	1.09	0.94	1340	363	primarily metabolized by CYP3A4	–	–	–	–	–	–	–
O=C1NC(=O)[C@@H](c2cn3c4c(cccc24)CCC3)[C@@H]1c1c[nH]c2ccccc12 [tivantinib]	–	–	–	–	–	–	240	67.78	9.27	0.64	1.6	metabolized primarily by CYP2C19 and partially by CYP3A4/5	240
